This note sets out measurements from patent US20040197705A1, “Cyanide compound, optical filter, and optical recording material” (ASAHI DENKA CO., LTD., priority 2003, published 2004).

Where only a bound is given, the exact number is not on record here.

Holding throughout (type): physicochemical
Series [1] can be described thus: Evaluation of solubility in methyl ethyl ketone (MEK). The settings on record: in methyl ethyl ketone (MEK) at 20° C.; % by weight; tested from 0.1 to 0.3% by 0.05%. On the procedure:
The test compound was added to MEK at 20° C. in an amount corresponding to a concentration varying from 0.1 to 0.3% by weight by 0.05% by weight to see whether it dissolved or not.

Series [2] in a line: Absorption spectrum of optical filters containing the cyanine compound (λmax, half bandwidth). The conditions noted are these: Example 3: PET-protected glass plate with dye-containing acrylic binder layer. On the procedure: A binder composition having the above formulation was applied to a 188 μm thick PET film having been surface treated for adhesion improvement with a bar coater #9 and dried at 80° C. for 30 seconds. The PET film was hot bonded to a 0.9 mm thick alkali glass plate to prepare a PET-protected glass plate having a light absorbing dye-containing binder layer between the glass substrate and the PET film.

Series [3] is described as follows: Decomposition temperature in TG-DTA. The conditions noted are these: 100 ml/min nitrogen stream; temperature rise 10° C./min. The procedure:
Decomposition Temperature in TG-DTA (100 ml/min nitrogen stream; temperature rise: 10° C./min): 281° C.

A short description of series [4]: UV transmission and reflection spectra of spin-coated specimens (optical recording material). The conditions noted are these: for Reflected Light Intensity at 650 nm: expressed relatively to that at λmax; for Reflected Light Intensity at 650 nm / Reflected Light λmax: incidence angle 5°; for Reflected Light λmax: specimen as in Evaluation Example 3; for Transmitted Light λmax: specimen spin coated on polycarbonate plate as in Evaluation Example 3. The procedure:
(§1) The test compound shown in Table 2 below was dissolved in a 1:1 (by volume) mixed solvent of MEK and 2,2,3,3-tetrafluoropropan-1-ol to prepare a 1 wt % solution. The solution was applied to a 20 mm×20 mm polycarbonate plate by spin coating at 2000 rpm for 60 seconds to prepare a specimen. The UV absorption spectrum of the specimen was determined. The specimen was then irradiated with light of 55000 lux, and the exposure time required for the absorption retention (as defined in Evaluation Example 2) to decrease to 50% was measured.
Specimens were prepared in the same manner as in Evaluation Example 3. The UV transmission spectrum and the UV reflection spectrum (incidence angle: 5°) of the specimens were measured. In Table 4, the reflected light intensity at 650 nm is expressed relatively to that at λmax.

Series [5] can be described thus: Evaluation of light resistance (absorption retention halving time). The conditions noted are these: film spin coated on polycarbonate plate; light of 55000 lux; exposure time for absorption retention to decrease to 50%. On the procedure: as §1

As to `Cc1c(C2=C([O-])/C(=C/C3=[N+](C)c4ccccc4C3(C)C)C2=O)c2ccccc2n1C` [Compound No. 14], the “Solubility: soluble at” value in series [1] is on record as “soluble at 0.3%”. Besides, in series [2], the “Half Bandwidth” value was determined as 30 nm and the λmax was determined as 602 nm. In series [3], the “Decomposition Temperature in TG-DTA” value came to 287 °C.
As for `Cc1c(C2=C([O-])/C(=C/C3=[N+](C)c4ccccc4C3(C)C)C2=O)c2cc([N+](=O)[O-])ccc2n1CCC(C)C` [Compound No. 23], in series [2], the “Half Bandwidth” value is 36 nm and the λmax was 597 nm.
As to `CC1=[N+](C)c2ccccc2/C1=C1/C(=O)C(c2c(C)n(C)c3ccccc23)=C1[O-]` [Comp. Compound 1, reference compound], the “Solubility: insoluble at” value in series [1] is given as “insoluble at 0.1%”.
Take `Cn1c(-c2ccccc2)c(C2=C([O-])/C(=C/C3=[N+](C)c4ccccc4C3(C)C)C2=O)c2ccccc21` [Compound No. 26]: the “Solubility: soluble at” value in series [1] is “soluble at 0.3%”. Also, in series [2], the “Half Bandwidth” value is reported as 34 nm and the λmax was 606 nm. The “Decomposition Temperature in TG-DTA” value in series [3] was 273 °C.
In the case of `CCCCn1c(C)c(C2=C([O-])/C(=C3/C(C)=[N+](CCCC)c4ccccc43)C2=O)c2ccccc21` [Comp. Compound 2, reference compound], the “Solubility: insoluble at” value in series [1] was “insoluble at 0.1%”.
Consider `Cc1[nH]c2ccc(F)cc2c1C1=C([O-])/C(=C/C2=[N+](C)c3ccccc3C2(C)C)C1=O` [Compound No. 22], for which, in series [2], the “Half Bandwidth” value is reported as 33 nm and the λmax was determined as 590 nm. Moreover, the “Decomposition Temperature in TG-DTA” value in series [3] amounted to 295 °C.
With `Cn1cc(C2=C([O-])/C(=C/C3=[N+](C)c4ccc5ccccc5c4C34CCCCC4)C2=O)c2ccccc21` [Compound No. 4], in series [1], the “Solubility: insoluble at” value was < 0.2% and the “Solubility: soluble at” value was ≥ 0.15%. Besides, the “Decomposition Temperature in TG-DTA” value in series [3] worked out at 259 °C.
`CC(C)CC[N+]1=C(/C=C2\C(=O)C(c3cn(C)c4ccccc34)=C2[O-])C(C)(C)c2ccccc21` [Compound No. 5]: the “Solubility: soluble at” value in series [1] was “soluble at 0.3%”. Further, in series [4], the “Reflected Light Intensity at 650 nm” value is on record as 95.9%, the “Reflected Light λmax” value amounted to 656 nm and the “Transmitted Light λmax” value was found to be 611 nm. In series [2], the “Half Bandwidth” value was determined as 29 nm and the λmax came out at 587 nm. Moreover, the “Absorption Retention Halving Time” value in series [5] worked out at 38 h. Moreover, in series [3], the “Decomposition Temperature in TG-DTA” value was 271 °C.
Consider `CC(C)CCn1cc(C2=C([O-])/C(=C/C3=[N+](C)c4ccccc4C3(C)C)C2=O)c2ccccc21` [Compound No. 3], for which, in series [4], the “Reflected Light Intensity at 650 nm” value is listed as 100%, the “Reflected Light λmax” value stood at 651 nm and the “Transmitted Light λmax” value turned out to be 608 nm. Besides, in series [5], the “Absorption Retention Halving Time” value was determined as 26 h.
